How the values were obtained:
Type in all cases: biochemical
[1] = molecular target: T1, JAK3 (Homo sapiens, UniProt P52333); experiment: Inhibition of JAK3 kinase, LANCE Ultra TR-FRET assay; conditions: 2x ATP 8 μM, 15 min pre-incubation, 90 min reaction, 23° C.
T1 construct: purchased Invitrogen PV4080
T1 sequence (P52333 1-1124): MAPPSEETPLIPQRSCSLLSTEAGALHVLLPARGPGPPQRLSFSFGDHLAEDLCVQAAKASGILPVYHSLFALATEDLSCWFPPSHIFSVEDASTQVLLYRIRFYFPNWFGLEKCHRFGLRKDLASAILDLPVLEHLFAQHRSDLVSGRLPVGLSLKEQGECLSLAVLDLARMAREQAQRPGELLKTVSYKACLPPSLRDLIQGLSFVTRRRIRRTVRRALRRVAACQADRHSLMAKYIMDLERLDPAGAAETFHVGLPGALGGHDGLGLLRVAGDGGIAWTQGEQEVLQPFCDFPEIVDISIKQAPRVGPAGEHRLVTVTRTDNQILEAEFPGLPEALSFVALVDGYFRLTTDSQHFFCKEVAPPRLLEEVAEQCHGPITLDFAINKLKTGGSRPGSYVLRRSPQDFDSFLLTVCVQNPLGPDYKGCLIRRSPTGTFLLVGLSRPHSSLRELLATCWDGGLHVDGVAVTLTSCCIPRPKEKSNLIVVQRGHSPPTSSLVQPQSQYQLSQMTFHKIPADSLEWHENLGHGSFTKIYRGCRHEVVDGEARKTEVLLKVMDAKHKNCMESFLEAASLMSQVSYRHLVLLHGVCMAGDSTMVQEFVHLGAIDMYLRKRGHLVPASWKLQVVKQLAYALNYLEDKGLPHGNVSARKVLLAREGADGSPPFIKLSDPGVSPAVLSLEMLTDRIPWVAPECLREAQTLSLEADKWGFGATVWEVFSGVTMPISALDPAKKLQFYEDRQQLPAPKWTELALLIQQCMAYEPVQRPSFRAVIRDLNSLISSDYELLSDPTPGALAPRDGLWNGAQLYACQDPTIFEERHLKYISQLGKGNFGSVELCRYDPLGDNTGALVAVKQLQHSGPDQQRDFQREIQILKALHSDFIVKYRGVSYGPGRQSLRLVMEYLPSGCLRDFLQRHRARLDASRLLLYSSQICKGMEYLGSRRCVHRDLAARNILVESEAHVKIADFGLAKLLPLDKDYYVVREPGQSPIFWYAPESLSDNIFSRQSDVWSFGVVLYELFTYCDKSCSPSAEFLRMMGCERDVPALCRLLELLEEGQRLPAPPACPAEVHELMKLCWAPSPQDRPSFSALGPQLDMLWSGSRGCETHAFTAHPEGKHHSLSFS
Description: (§1) Exemplary compounds were assayed to determine potency in inhibiting activity of JAK1-3 and TYK2 kinases by determining IC50 values.
(§2) The sources of test materials and equipment are as follows: JAK1 (Invitrogen, Cat. No PV4775), JAK2 (Invitrogen, Cat. No PV4210), JAK3 (Invitrogen, Cat. No PV4080), TYK2 (Invitrogen, Cat. No PR8440C), ATP (Sigma, Cat. No. A7699-1G), DMSO (Sigma, Cat. No. D2650), DTT (Sigma, Cat. No. 43815), 384 wells_compound plate (Greiner, Cat. No. 781280), 384 wells_assay plate (Perkin Elmer, Cat. No. 6007299), LANCE Ultra ULight™-JAK-1 peptide (Perkin Elmer, Cat. No. TRF0121), LANCET™ Eu-W1024 Anti-phosphotyrosine (PT66) (Perkin Elmer, Cat. No. AD0069), LANCET™ Detection Buffer(Perkin Elmer, Cat. No. CR97-100).
(§3) The concentrations of test compounds varied from 100 μM to 1.7 nM with 3-fold dilution, 11 points, in duplicates while the concentrations of the reference compound, Tofacitinib, varied from 1 μM to 0.017 nM with 3-fold dilution, 11 points, in duplicates.
(§4) The assay buffer contained 50 mM HEPES (pH 7.5), 0.01% Brij-35, 10 mM MgCl2, 1 mM EDTA, 2 mM DTT. Incubations were carried out at 23° C.
(§5) Prior to the assay, enzyme, peptide substrate and serially diluted test compounds were pre-incubated together in assay buffer (5 μL) for 15 minutes (peptide substrate concentration: 50 nM; JAK enzyme concentrations: 2 nM JAK1; […]; […] and 4 nM TYK2). And the assay was initiated by the addition of 5 μL assay buffer containing 2× final ATP concentration (these are the 2×ATP concentrations: 76 μM JAK1; 24 μM JAK2; 8 μM JAK3 and 30 μM TYK2). Following the 90-minute incubation, antibody conjugated with Eu is dissolved in detection buffer to add into wells and then incubated for 60 minutes. The 10 μL detection buffer contains EDTA to stop the enzymatic reaction. The plate is analyzed by Perkin Elmer Envision on TR-FRET mode. The high ratio of 665/615 represents no inhibition of kinase reaction while the low ratio of 665/615 represents complete inhibition of kinase reaction.
(§6) Curves are fit by XLFIT5 as inhibition rate % vs. log [compound concentration] using 4 parameters logistic model 205.
(§7) In the table, “A” indicates an IC50 of less than 100 nM, “B” indicates an IC50 range from 100 nM to 500 nM; “C” indicates an IC50 range from 500 nM to 2 μM; and “D” indicates an IC50 greater than 2 μM. Also, “na” indicates data is not available.

[2] = molecular target: T2, JAK1 (Homo sapiens, UniProt P23458); experiment: Inhibition of JAK1 kinase, LANCE Ultra TR-FRET assay; conditions: 2 nM JAK1, 2x ATP 76 μM, 15 min pre-incubation, 90 min reaction, 23° C.
T2 construct: purchased Invitrogen PV4775
Description: as §1, §2, §3, §4, §5, §6, §7

[3] = molecular target: T3, JAK2 (Homo sapiens, UniProt O60674); experiment: Inhibition of JAK2 kinase, LANCE Ultra TR-FRET assay; conditions: 2x ATP 24 μM, 15 min pre-incubation, 90 min reaction, 23° C.
T3 construct: purchased Invitrogen PV4210
Description: as §1, §2, §3, §4, §5, §6, §7

[4] = molecular target: T4, TYK2 (Homo sapiens, UniProt P29597); experiment: Inhibition of TYK2 kinase, LANCE Ultra TR-FRET assay; conditions: 4 nM TYK2, 2x ATP 30 μM, 15 min pre-incubation, 90 min reaction, 23° C., read-out: tyk IC50
T4 construct: purchased Invitrogen PR8440C
Description: as §1, §2, §3, §4, §5, §6, §7

T4 sequence (P29597 whole entry): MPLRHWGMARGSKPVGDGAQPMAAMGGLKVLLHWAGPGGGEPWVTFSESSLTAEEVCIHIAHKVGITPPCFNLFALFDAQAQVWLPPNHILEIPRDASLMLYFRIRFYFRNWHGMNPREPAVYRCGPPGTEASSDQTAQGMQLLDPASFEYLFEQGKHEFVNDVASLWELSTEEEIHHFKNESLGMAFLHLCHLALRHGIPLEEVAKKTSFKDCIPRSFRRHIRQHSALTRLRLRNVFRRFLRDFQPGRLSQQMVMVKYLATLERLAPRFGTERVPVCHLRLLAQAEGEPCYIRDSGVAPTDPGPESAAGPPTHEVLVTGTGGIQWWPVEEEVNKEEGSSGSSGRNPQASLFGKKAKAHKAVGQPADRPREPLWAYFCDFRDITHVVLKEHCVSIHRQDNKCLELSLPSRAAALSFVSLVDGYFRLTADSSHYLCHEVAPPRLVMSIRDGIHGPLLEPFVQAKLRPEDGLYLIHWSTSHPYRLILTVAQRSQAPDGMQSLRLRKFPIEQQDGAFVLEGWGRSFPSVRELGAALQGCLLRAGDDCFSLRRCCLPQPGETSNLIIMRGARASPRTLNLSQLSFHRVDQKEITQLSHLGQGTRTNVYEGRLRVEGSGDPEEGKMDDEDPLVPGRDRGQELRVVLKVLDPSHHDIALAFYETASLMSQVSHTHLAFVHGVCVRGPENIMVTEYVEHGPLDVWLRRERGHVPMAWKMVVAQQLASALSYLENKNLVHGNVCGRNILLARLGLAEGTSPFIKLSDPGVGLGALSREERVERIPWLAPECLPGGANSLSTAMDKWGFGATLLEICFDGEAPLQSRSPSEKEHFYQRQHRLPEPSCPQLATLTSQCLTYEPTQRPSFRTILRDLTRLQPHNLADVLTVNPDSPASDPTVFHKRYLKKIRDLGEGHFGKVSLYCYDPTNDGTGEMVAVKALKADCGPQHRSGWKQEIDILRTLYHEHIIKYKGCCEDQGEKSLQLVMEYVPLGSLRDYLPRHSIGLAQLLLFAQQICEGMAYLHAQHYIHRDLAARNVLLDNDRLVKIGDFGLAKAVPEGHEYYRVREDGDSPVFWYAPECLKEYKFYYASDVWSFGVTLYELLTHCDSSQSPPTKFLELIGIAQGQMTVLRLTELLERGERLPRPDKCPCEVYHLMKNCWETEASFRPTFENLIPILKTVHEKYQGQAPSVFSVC
T3 sequence (O60674 whole entry): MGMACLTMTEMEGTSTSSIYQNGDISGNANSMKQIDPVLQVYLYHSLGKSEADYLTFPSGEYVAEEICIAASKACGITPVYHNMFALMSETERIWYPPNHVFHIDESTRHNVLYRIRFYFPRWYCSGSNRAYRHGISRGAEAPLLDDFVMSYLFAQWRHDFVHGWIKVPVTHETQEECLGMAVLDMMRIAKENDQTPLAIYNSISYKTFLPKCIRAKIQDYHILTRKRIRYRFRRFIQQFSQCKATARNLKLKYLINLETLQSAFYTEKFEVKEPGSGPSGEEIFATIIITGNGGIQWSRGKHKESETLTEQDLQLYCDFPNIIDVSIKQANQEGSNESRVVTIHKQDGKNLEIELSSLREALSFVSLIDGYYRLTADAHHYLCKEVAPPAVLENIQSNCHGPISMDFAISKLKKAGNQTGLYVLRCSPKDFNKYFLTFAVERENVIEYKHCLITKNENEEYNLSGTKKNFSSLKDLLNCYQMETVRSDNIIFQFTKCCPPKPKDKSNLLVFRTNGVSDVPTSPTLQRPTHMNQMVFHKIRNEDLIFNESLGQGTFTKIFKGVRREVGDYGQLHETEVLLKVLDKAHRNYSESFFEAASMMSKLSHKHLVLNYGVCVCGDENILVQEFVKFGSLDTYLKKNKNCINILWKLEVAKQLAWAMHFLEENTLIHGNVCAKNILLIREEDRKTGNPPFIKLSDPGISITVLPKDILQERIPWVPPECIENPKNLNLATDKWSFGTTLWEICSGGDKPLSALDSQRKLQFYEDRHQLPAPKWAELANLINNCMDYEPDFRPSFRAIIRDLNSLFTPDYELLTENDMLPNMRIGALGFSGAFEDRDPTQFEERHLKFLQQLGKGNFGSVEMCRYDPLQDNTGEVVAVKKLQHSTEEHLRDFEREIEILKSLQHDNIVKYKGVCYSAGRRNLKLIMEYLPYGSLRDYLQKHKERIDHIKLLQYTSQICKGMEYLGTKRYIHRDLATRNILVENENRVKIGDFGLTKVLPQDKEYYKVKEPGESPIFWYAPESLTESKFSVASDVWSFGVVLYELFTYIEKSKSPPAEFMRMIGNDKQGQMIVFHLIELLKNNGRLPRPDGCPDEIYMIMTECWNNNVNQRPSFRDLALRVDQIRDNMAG
T2 sequence (P23458 whole entry): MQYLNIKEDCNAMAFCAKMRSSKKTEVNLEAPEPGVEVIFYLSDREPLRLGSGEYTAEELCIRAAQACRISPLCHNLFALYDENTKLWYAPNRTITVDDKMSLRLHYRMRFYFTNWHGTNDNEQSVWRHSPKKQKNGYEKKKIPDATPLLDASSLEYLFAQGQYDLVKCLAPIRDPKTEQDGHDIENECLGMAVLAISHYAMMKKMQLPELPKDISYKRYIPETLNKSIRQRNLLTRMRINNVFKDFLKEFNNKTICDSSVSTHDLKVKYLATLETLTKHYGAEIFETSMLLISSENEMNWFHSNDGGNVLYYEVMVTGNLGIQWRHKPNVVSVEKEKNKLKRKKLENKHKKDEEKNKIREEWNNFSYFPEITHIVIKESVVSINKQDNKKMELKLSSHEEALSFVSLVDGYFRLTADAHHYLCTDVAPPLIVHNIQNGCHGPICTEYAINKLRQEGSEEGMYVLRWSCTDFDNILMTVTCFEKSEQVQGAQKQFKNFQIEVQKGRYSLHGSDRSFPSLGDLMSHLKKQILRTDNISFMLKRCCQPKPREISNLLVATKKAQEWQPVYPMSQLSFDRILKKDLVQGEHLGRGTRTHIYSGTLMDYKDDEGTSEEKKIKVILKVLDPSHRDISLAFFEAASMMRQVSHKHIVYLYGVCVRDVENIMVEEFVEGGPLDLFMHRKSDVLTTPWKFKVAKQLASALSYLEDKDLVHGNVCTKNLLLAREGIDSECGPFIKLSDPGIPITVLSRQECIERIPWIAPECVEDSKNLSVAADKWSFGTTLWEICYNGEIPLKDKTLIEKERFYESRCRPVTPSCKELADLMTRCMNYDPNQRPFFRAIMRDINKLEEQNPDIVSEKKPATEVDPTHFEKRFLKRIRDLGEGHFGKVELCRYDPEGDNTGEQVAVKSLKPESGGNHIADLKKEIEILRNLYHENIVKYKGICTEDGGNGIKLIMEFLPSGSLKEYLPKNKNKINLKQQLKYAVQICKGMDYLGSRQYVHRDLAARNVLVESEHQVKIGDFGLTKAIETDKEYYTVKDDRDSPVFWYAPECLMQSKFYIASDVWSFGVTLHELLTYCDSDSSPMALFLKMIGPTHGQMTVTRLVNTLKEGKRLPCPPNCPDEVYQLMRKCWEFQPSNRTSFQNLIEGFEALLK

SMILES | IC50 [1] [nM] | IC50 [2] [nM] | IC50 [3] [nM] | IC50 [4] [nM]
O=C(NCCC1(F)COC1)c1noc2c1CN(c1ncnc3[nH]ccc13)CC2 [Compound 147] | 100 to 500 | 100 to 500 | 100 to 500 | > 2000
O=C(NCCC(F)(F)F)c1nsc2c1CN(c1ncnc3[nH]ccc13)CC2 [Compound 141] | < 100 | < 100 | < 100 | 100 to 500
Cn1cc(C(=O)NCCC(F)(F)F)c2c1CCN(c1ncnc3[nH]ccc13)C2 [Compound 130] | < 100 | < 100 | 100 to 500 | 100 to 500
O=C(NCCCC(F)(F)F)c1noc2c1CN(c1ncnc3[nH]ccc13)CC2 [Compound 154] | < 100 | 100 to 500 | 100 to 500 | > 2000
O=C(NCCC1CC1)c1n[nH]c2c1CN(c1ncnc3[nH]ccc13)CC2 [Compound 138] | < 100 | 100 to 500 | 100 to 500 | 500 to 2000
O=C(NCCC1COC1)c1noc2c1CN(c1ncnc3[nH]ccc13)CC2 [Compound 146] | 100 to 500 | 100 to 500 | 500 to 2000 | > 2000
CCCS(=O)(=O)NC(=O)[C@H]1C[C@H](NC(=O)c2nn(C)c3c2CN(c2ncnc4[nH]ccc24)CC3)C1 [Compound 127] | 100 to 500 | 100 to 500 | 500 to 2000 | > 2000
O=C(NCCC(F)(F)F)c1nn(C2CCC2)c2c1CN(c1ncnc3[nH]ccc13)CC2 [Compound 117] | < 100 | 100 to 500 | 500 to 2000 | > 2000
CSC(CNC(=O)c1noc2c1CN(c1ncnc3[nH]ccc13)CC2)C(F)(F)F (centres unmarked) [Compound 191] | 100 to 500 | 100 to 500 | 100 to 500 | > 2000
CCn1nc(C(=O)CC#N)c2c1CCN(c1ncnc3[nH]ccc13)C2 [Compound 119] | 500 to 2000 |  | 500 to 2000 | 
O=C(NC[C@@H]1CC[C@H]1O)c1noc2c1CN(c1ncnc3[nH]ccc13)CC2 (relative stereo) [Compound 150-1] | 100 to 500 | 500 to 2000 | 500 to 2000 | > 2000
CNC(=O)[C@H]1C[C@H](NC(=O)c2nn(C)c3c2CN(c2ncnc4[nH]ccc24)CC3)C1 [Compound 122] | > 2000 | > 2000 | > 2000 | > 2000
O=C(NCCN1CCOCC1)c1noc2c1CN(c1ncnc3[nH]ccc13)CC2 [Compound 162] | 500 to 2000 | > 2000 | > 2000 | > 2000
O=C(NCCC(F)(F)F)c1nn(CCCc2ccccn2)c2c1CN(c1ncnc3[nH]ccc13)CC2 [Compound 108] | 100 to 500 | > 2000 | > 2000 | > 2000
O=C(NCCS(=O)(=O)N1CCCC1)c1noc2c1CN(c1ncnc3[nH]ccc13)CC2 [Compound 135] | 100 to 500 | 100 to 500 | 100 to 500 | > 2000
CS(=O)(=O)N1CCC(CCNC(=O)c2noc3c2CN(c2ncnc4[nH]ccc24)CC3)C1 (centres unmarked) [Compound 165] | > 2000 | > 2000 | > 2000 | > 2000
O=C(NCCc1ccccc1)c1noc2c1CN(c1ncnc3[nH]ccc13)CC2 [Compound 163] | < 100 | 100 to 500 | 100 to 500 | > 2000
O=C(NCCC(F)(F)F)c1noc2c1CN(c1ncnc3[nH]ncc13)CC2 [Compound 189] | 100 to 500 | 100 to 500 | > 2000 | > 2000
Cn1nc(C(=O)N[C@H]2C[C@H](CC#N)C2)c2c1CCN(c1ncnc3[nH]ccc13)C2 [Compound 128] | 500 to 2000 | 500 to 2000 | 500 to 2000 | > 2000
FC(F)(F)CCNCc1n[nH]c2c1CN(c1ncnc3[nH]ccc13)CC2 [Compound 131] | < 100 | 100 to 500 | 100 to 500 | 100 to 500
O=C(NCCC1CC(F)(F)C1)c1noc2c1CN(c1ncnc3[nH]ccc13)CC2 [Compound 148] | 100 to 500 | 100 to 500 | 500 to 2000 | > 2000
CS(=O)(=O)N1CCN(CCNC(=O)c2noc3c2CN(c2ncnc4[nH]ccc24)CC3)CC1 [Compound 167] | 100 to 500 | 100 to 500 | 500 to 2000 | > 2000
O=C(NCCC(F)(F)F)c1nn(-c2ccccc2)c2c1CN(c1ncnc3[nH]ccc13)CC2 [Compound 114] | < 100 | 100 to 500 | 500 to 2000 | 500 to 2000
O=C(NCCC(F)(F)F)c1nn(CCCc2ccccc2)c2c1CN(c1ncnc3[nH]ccc13)CC2 [Compound 115] | 100 to 500 | 500 to 2000 | > 2000 | > 2000
CN1CCCC1CCNC(=O)c1noc2c1CN(c1ncnc3[nH]ccc13)CC2 (centres unmarked) [Compound 155] | 500 to 2000 | 500 to 2000 | 500 to 2000 | > 2000
O=C(NCCS(=O)(=O)N1CCC1)c1noc2c1CN(c1ncnc3[nH]ccc13)CC2 [Compound 134] | 100 to 500 | 500 to 2000 | 500 to 2000 | > 2000
O=C(NCC1CCC1O)c1noc2c1CN(c1ncnc3[nH]ccc13)CC2 (centres unmarked) [Compound 150] | < 100 | 100 to 500 | 100 to 500 | > 2000
O=C(NCCC(F)(F)F)c1nn(CCc2cccnc2)c2c1CN(c1ncnc3[nH]ccc13)CC2 [Compound 106] | 100 to 500 | > 2000 | > 2000 | > 2000
O=C(NCCC(F)(F)F)c1nn(Cc2ccccc2)c2c1CN(c1ncnc3[nH]ccc13)CC2 [Compound 111] | < 100 | 100 to 500 | 500 to 2000 | > 2000
N#Cc1ccc(-c2nn(CCO)c3c2CN(c2ncnc4[nH]ccc24)CC3)cc1 [Compound 120] | 500 to 2000 |  | 100 to 500 | 

Source: patent US12286443B2, “Bycyclic JAK inhibitors and uses thereof” (Insilico Medicine IP Limited, priority 2019, dated 2025)
